Experimental findings from ChEMBL document CHEMBL1932937, “Inhibition of noroviruses by piperazine derivatives” (Bioorg Med Chem Lett, 2012) are described below.

One data set deals with Norovirus. Nature of the data set: Antiviral activity against Norovirus infected in human HG23 cells assessed as inhibition of viral replication after 24 hrs. Type of data set: functional. The following applies: HG23, 24 h, read-out: ED50 (the source's name).
Data set [1] is described as follows: Cytotoxicity against human HG23 cells after 48 hrs. The format is cell-based. The conditions noted are these: read-out: TD50.
A short description of data set [2]: Therapeutic index, ratio of TD50 for HG23 cells to ED50 for Norovirus infected in human HG23 cells. The conditions noted are these: read-out: Ratio TD50/ED50. Type of data set: cell-based.

Some results are limits rather than exact numbers.

`c1ccc(Oc2cccc(CN3CCN(Cc4cccc(Oc5ccccc5)c4)CC3)c2)cc1`: the EC50 in the data set on Norovirus turned out to be 5.6 µM. The CC50 at 48 h in data set [1] amounted to 75.4 µM.

As for `O=C(c1cccc(F)c1)N1CCN(Cc2ccccc2)CC1`, the EC50 in the data set on Norovirus is over 20 µM.

For the molecule `O=C(c1cccc(Oc2ccccc2)c1)N1CCN(Cc2cccc(Oc3ccccc3)c2)CC1`, the EC50 in the data set with Norovirus amounted to 5.5 µM. In data set [1], the CC50 at 48 h was 15.6 µM.

For `CC(C)Oc1ccc(C(=O)N2CCN(Cc3cccc(Oc4ccccc4)c3)CC2)cc1`, the EC50 in the data set on Norovirus is over 20 µM.

Take `O=C(c1cn(Cc2ccc(F)cc2)nn1)N1CCN(Cc2ccccc2)CC1`: in the data set on Norovirus, the EC50 is over 20 µM.

Regarding `COC(=O)c1ccc(Cn2cc(C(=O)N3CCN(Cc4ccccc4)CC3)nn2)cc1`, the EC50 in the data set on Norovirus was over 20 µM.

With `O=C(N1CCOCC1)N1CCN(Cc2ccccc2)CC1`, the EC50 in the data set on Norovirus was over 20 µM.

Consider `O=C1CC(C(=O)N2CCN(Cc3ccccc3)CC2)CN1Cc1ccco1` (stereo not drawn), for which the EC50 in the data set with Norovirus was over 20 µM.

Turning to `N#Cc1ccc(S(=O)(=O)N2CCN(Cc3cccc(Oc4ccccc4)c3)CC2)cc1`, the EC50 with Norovirus is 12.5 µM. Also, in data set [1], the CC50 at 48 h came to 119 µM.

On to `COc1ccc(C(=O)N2CCN(Cc3cccc(Oc4ccccc4)c3)CC2)cc1`, for which, in the data set on Norovirus, the EC50 is 4.5 µM. Moreover, in data set [1], the CC50 at 48 h was 25.4 µM.

Turning to `O=C(c1ccc(Oc2ccccc2)cc1)N1CCN(Cc2ccccc2)CC1`, the EC50 with Norovirus is over 20 µM.

As for `O=C(c1ccco1)N1CCN(Cc2ccccc2)CC1`, the EC50 with Norovirus was over 20 µM.

As for `Oc1cccc(CN2CCN(Cc3cccc(Oc4ccccc4)c3)CC2)c1`, the EC50 in the data set on Norovirus is over 20 µM.

In the case of `COc1ccc(CN2CC(C(=O)N3CCN(Cc4ccccc4)CC3)CC2=O)cc1` (stereo not drawn), the EC50 in the data set with Norovirus was found to be 7.2 µM. In addition, the CC50 at 48 h in data set [1] came to 155 µM.

In the case of `O=C(c1cn(CSc2ccccc2)nn1)N1CCN(Cc2ccccc2)CC1`, the EC50 with Norovirus is over 20 µM.

As for `O=C(c1cccc(Cl)c1)N1CCN(Cc2ccccc2)CC1`, the EC50 with Norovirus is over 20 µM.

On to `O=C(c1ccc(O)cc1)N1CCN(Cc2cccc(Oc3ccccc3)c2)CC1`, for which the EC50 in the data set with Norovirus is over 20 µM.

Regarding `O=C(c1ccc(Oc2ccccc2)cc1)N1CCN(Cc2cccc(Oc3ccccc3)c2)CC1`, the EC50 in the data set on Norovirus was 3.8 µM. The CC50 at 48 h in data set [1] was found to be 23.5 µM.

Take `CC(C)Oc1ccc(CN2CCN(Cc3cccc(Oc4ccccc4)c3)CC2)cc1`: the EC50 with Norovirus was 8.5 µM. In data set [1], the CC50 at 48 h was found to be 31.5 µM.

In the case of `O=C(c1ccccc1Oc1ccccc1)N1CCN(Cc2ccccc2)CC1`, in the data set on Norovirus, the EC50 was 8.2 µM. The CC50 at 48 h in data set [1] was determined as 18.5 µM.

Turning to `O=C(c1cccc(Oc2ccccc2)c1)N1CCN(Cc2ccccc2)CC1`, the EC50 with Norovirus stood at 2.8 µM. Moreover, the CC50 at 48 h in data set [1] came out at 11.4 µM.

As for `O=C(c1cn(Cc2cccc(F)c2)nn1)N1CCN(Cc2ccccc2)CC1`, the EC50 in the data set on Norovirus is over 20 µM.

For the molecule `CCCOc1ccc(C(=O)N2CCN(Cc3ccccc3)CC2)cc1`, in the data set on Norovirus, the EC50 worked out at 7.8 µM. Besides, the CC50 at 48 h in data set [1] worked out at 95.3 µM.

Consider `O=C(Cc1ccc(Cl)cc1)N1CCN(Cc2cccc(Oc3ccccc3)c2)CC1`, for which, in the data set with Norovirus, the EC50 is over 20 µM.

Consider `CCCCS(=O)(=O)N1CCN(Cc2cccc(Oc3ccccc3)c2)CC1`, for which the EC50 in the data set on Norovirus worked out at 6.7 µM. In addition, the selectivity ratio in data set [2] is 18. For the same molecule, in data set [1], the CC50 at 48 h is 121 µM.

As for `N#Cc1ccc(C(=O)N2CCN(Cc3cccc(Oc4ccccc4)c3)CC2)cc1`, in the data set with Norovirus, the EC50 is over 20 µM.

For `COc1ccc(CC(=O)N2CCN(Cc3ccccc3)CC2)cc1`, the EC50 with Norovirus was over 20 µM.

As for `O=C1CC(C(=O)N2CCN(Cc3ccccc3)CC2)CN1Cc1ccccc1` (stereo not drawn), the EC50 in the data set with Norovirus was over 20 µM.

In the case of `O=C1CC(C(=O)N2CCN(Cc3ccccc3)CC2)CN1CCc1ccccc1` (stereo not drawn), the EC50 with Norovirus is over 20 µM.

In the case of `COc1ccc(Cn2cc(C(=O)N3CCN(Cc4ccccc4)CC3)nn2)cc1`, the EC50 in the data set with Norovirus was 8.5 µM. For the same molecule, in data set [1], the CC50 at 48 h was determined as 62.5 µM.
